ChEMBL document CHEMBL1201862, “PubChem BioAssay data set” (2004)
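Values below derive from 48-hour exposures of cells grown in 96-well plates, with endpoints linearly interpolated between the two concentrations bracketing the appropriate inhibition level. GI50: concentration for 50% inhibition of growth.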 The source made the active and inactive calls. Rule as the data show it: active = GI50 up to about 1.1 µM and inactive = higher.

Experiments:
Assay in all cases: inhibition of tumour cell growth, NCI panel, 48 h
HOP-62 = system: HOP-62
HOP-92 = system: HOP-92
HT-29 = system: HT-29
KM12 = system: KM12
NCI-H522 = system: NCI-H522
NCI/ADR-RES = system: NCI/ADR-RES
RPMI-8226 = system: RPMI-8226
RXF 393 = system: RXF 393
SF-268 = system: SF-268
SK-MEL-5 = system: SK-MEL-5
SN12C = system: SN12C
SNB-78 = system: SNB-78
SW-620 = system: SW-620
U-251 = system: U-251
UACC-257 = system: UACC-257

SMILES | GI50 (HOP-62) | GI50 (HOP-92) | GI50 (HT-29) | GI50 (KM12) | GI50 (NCI-H522) | GI50 (NCI/ADR-RES) | GI50 (RPMI-8226) | GI50 (RXF 393) | GI50 (SF-268) | GI50 (SK-MEL-5) | GI50 (SN12C) | GI50 (SNB-78) | GI50 (SW-620) | GI50 (U-251) | GI50 (UACC-257)
O=Cc1c(Cn2ccnc2)c2cc([N+](=O)[O-])ccc2n1Cc1ccccc1 | 27.3 µM (inactive) | > 100 µM (inactive) | > 100 µM (inactive) | 73.3 µM (inactive) | > 100 µM (inactive) | > 61.8 µM (inactive) | > 100 µM (inactive) | > 100 µM (inactive) | > 92.7 µM (inactive) | 99.1 µM (inactive) | > 86.5 µM (inactive) | > 72.4 µM (inactive) | > 100 µM (inactive) | 37.3 µM (inactive) | > 100 µM (inactive)
O=C(NC(Cc1ccc(I)cc1)C(=O)O)c1ccc(Cl)cc1 (configuration not stated) | > 100 µM (inactive) | 67.8 µM (inactive) | > 100 µM (inactive) | > 100 µM (inactive) | 74.3 µM (inactive) | > 100 µM (inactive) | 59.3 µM (inactive) | – | > 100 µM (inactive) | > 100 µM (inactive) | > 100 µM (inactive) | > 100 µM (inactive) | > 100 µM (inactive) | > 100 µM (inactive) | > 100 µM (inactive)
O=C(O)c1cn2c3c(cc(N4CCN(CCO)CC4)cc3c1=O)SCC2 | 48.4 µM (inactive) | 59.6 µM (inactive) | > 100 µM (inactive) | > 76.9 µM (inactive) | 26.5 µM (inactive) | > 89.7 µM (inactive) | > 100 µM (inactive) | > 100 µM (inactive) | 47.3 µM (inactive) | > 100 µM (inactive) | 47.1 µM (inactive) | > 79.8 µM (inactive) | > 100 µM (inactive) | > 95.9 µM (inactive) | > 100 µM (inactive)
COc1cc(O)c2c(c1)C(=O)c1cc3c(c(O)c1C2=O)C(OC1OC(C)C(O)C(O)C1OC)C(OC)C(C)(O)C3=O (configuration not stated) | 3.82 µM (inactive) | 0.436 µM (active) | 1.17 µM (inactive) | – | 1.93 µM (inactive) | 3.48 µM (inactive) | – | 1.22 µM (inactive) | 2.12 µM (inactive) | 0.865 µM (active) | 1.9 µM (inactive) | 3.76 µM (inactive) | 1.08 µM (active) | 3.39 µM (inactive) | 0.723 µM (active)
COC(=O)C1C(O)C(C)C(O)OC1C(C)C(O)C(C)/C=C\C=C(/C)C(=O)Nc1c(C)c(OC(C)=O)c2c(c1O)C(=O)C(C)=C1OCOC(/C(C)=C/C(C)=O)=C12 (configuration not stated) | 11.6 µM (inactive) | 12.8 µM (inactive) | 14.5 µM (inactive) | 14 µM (inactive) | 2.25 µM (inactive) | 15.1 µM (inactive) | 9.48 µM (inactive) | 13 µM (inactive) | 3.08 µM (inactive) | 12.8 µM (inactive) | 12.4 µM (inactive) | 13.2 µM (inactive) | 9.53 µM (inactive) | 14.4 µM (inactive) | 12.5 µM (inactive)
CC[C@@]1(O)C[C@H](OC2CC(N(C)C)C(O)C(C)O2)c2c(cc3c(c2O)C(=O)c2c(O)ccc(O)c2C3=O)[C@H]1C(=O)OC (some centres not stated) | 0.107 µM (active) | 0.256 µM (active) | 0.0388 µM (active) | 0.0635 µM (active) | 0.0521 µM (active) | 0.0526 µM (active) | 0.0364 µM (active) | 0.0366 µM (active) | 0.0536 µM (active) | 0.0938 µM (active) | 0.0377 µM (active) | 0.153 µM (active) | 0.0267 µM (active) | 0.0405 µM (active) | 0.0863 µM (active)
